# Experimental data as given in ChEMBL document CHEMBL1201861, “Genomics of Drug Sensitity in Cancer screening data, Wellcome Trust Sanger Institute”.
# Key:
# Experiment in all cases: cells
# U-87 MG = type: functional, cell-based, U-87MG ATCC; settings: Homo sapiens;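 note: growth inhibition of the cells measured with a viability assay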
# Description: SANGER: Inhibition of human U-87-MG cell growth in a cell viability assay.
# SNB-75 = type: functional, cell-based, Homo sapiens; settings: Homo sapiens, SNB-75;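 note: cell viability assay measuring growth inhibition of human SNB-75 cells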
# Description: SANGER: Inhibition of human SNB75 cell growth in a cell viability assay.
# MEG-01 = type: functional, cell-based; settings: Homo sapiens;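 note: growth inhibition of MEG-01 cells, read out by a cell viability assay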
# Description: SANGER: Inhibition of human MEG-01 cell growth in a cell viability assay.
# NCI-H526 = type: functional, cell-based; settings: Homo sapiens;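 note: growth inhibition of the human NCI-H526 cell line, measured by a cell viability assay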
# Description: SANGER: Inhibition of human NCI-H526 cell growth in a cell viability assay.
# LU-99A = type: functional, cell-based, Homo sapiens; settings: Homo sapiens, LU-99A;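 note: growth inhibition of LU-99A cells, read out with a cell viability assay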
# Description: SANGER: Inhibition of human LU-99A cell growth in a cell viability assay.
# U-118-MG = type: functional, cell-based, Homo sapiens; settings: Homo sapiens, U-118-MG
# Description: SANGER: Inhibition of human U-118-MG cell growth in a cell viability assay.
# NCI-H226 = type: functional, cell-based, Homo sapiens; settings: Homo sapiens, NCI-H226;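 note: cell viability read-out used to gauge growth inhibition of the cells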
# Description: SANGER: Inhibition of human NCI-H226 cell growth in a cell viability assay.
# L-428 = type: functional, cell-based; settings: Homo sapiens
# Description: SANGER: Inhibition of human L-428 cell growth in a cell viability assay.
# NCI-H1838 = type: functional, cell-based, Homo sapiens; settings: Homo sapiens, NCI-H1838;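 note: growth inhibition of NCI-H1838 cells, determined with a cell viability readout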
# Description: SANGER: Inhibition of human NCI-H1838 cell growth in a cell viability assay.
# SK-MEL3 = type: functional, cell-based, Homo sapiens, SK-MEL-3; settings: Homo sapiens, SK-MEL3;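 note: growth inhibition of human SK-MEL-3 cells, read out with a cell viability assay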
# Description: SANGER: Inhibition of human SK-MEL-3 cell growth in a cell viability assay.
# KYSE-180 = type: functional, cell-based, Homo sapiens; settings: Homo sapiens, KYSE-180;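 note: growth inhibition of KYSE-180 cells, read out with a cell viability assay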
# Description: SANGER: Inhibition of human KYSE-180 cell growth in a cell viability assay.
# LAN-6 = type: functional, cell-based, Homo sapiens; settings: Homo sapiens, LAN-6;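 note: growth inhibition of LAN-6 cells, determined with a cell viability assay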
# Description: SANGER: Inhibition of human LAN-6 cell growth in a cell viability assay.
# MOLT-16 = type: functional, cell-based; settings: Homo sapiens;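 note: growth inhibition of human MOLT-16 cells, read out with a cell viability assay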
# Description: SANGER: Inhibition of human MOLT-16 cell growth in a cell viability assay.
# A-431 = type: functional, cell-based, Homo sapiens; settings: Homo sapiens, A-431;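 note: growth inhibition of A-431 cells, determined with a cell viability read-out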
# Description: SANGER: Inhibition of human A431 cell growth in a cell viability assay.
# EC-GI-10 = type: functional, cell-based, Homo sapiens; settings: Homo sapiens, EC-GI-10
# Description: SANGER: Inhibition of human EC-GI-10 cell growth in a cell viability assay.
# RERF-LC-MS = type: functional, cell-based, Homo sapiens; settings: Homo sapiens, RERF-LC-MS;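 note: growth inhibition of human RERF-LC-MS cells, read out by a cell viability assay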
# Description: SANGER: Inhibition of human RERF-LC-MS cell growth in a cell viability assay.
# OAW-28 = type: functional, cell-based, Homo sapiens; settings: Homo sapiens, OAW-28;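 note: growth inhibition of OAW-28 cells, read out with a cell viability assay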
# Description: SANGER: Inhibition of human OAW-28 cell growth in a cell viability assay.
# HSC-3 = type: functional, cell-based, Homo sapiens; settings: Homo sapiens, HSC-3
# Description: SANGER: Inhibition of human HSC-3 cell growth in a cell viability assay.
# DK-MG = type: functional, cell-based, Homo sapiens; settings: Homo sapiens, DK-MG;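 note: growth inhibition of DK-MG cells, read out with a cell viability assay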
# Description: SANGER: Inhibition of human DK-MG cell growth in a cell viability assay.
# D-392MG = type: functional, cell-based, Homo sapiens; settings: Homo sapiens, D-392MG
# T84 = type: functional, cell-based, Homo sapiens; settings: Homo sapiens, T84;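 note: growth inhibition measured with a cell viability readout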
# Description: SANGER: Inhibition of human T84 cell growth in a cell viability assay.
# OE19 = type: functional, cell-based, Homo sapiens; settings: Homo sapiens, OE19;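 note: growth inhibition of OE19 cells, measured through a cell viability read-out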
# Description: SANGER: Inhibition of human OE19 cell growth in a cell viability assay.
# A388 = type: functional, cell-based, Homo sapiens; settings: Homo sapiens, A388;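 note: growth inhibition of human A388 cells, read out with a cell viability assay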
# Description: SANGER: Inhibition of human A388 cell growth in a cell viability assay.
# HuTu80 = type: functional, cell-based, Homo sapiens, HUTU-80; settings: Homo sapiens, HuTu80;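 note: growth inhibition of HuTu80 human cells, determined with a cell viability readout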
# Description: SANGER: Inhibition of human HUTU-80 cell growth in a cell viability assay.
# SK-N-FI = type: functional, cell-based, Homo sapiens; settings: Homo sapiens, SK-N-FI;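 note: cell viability assay measuring growth inhibition of human SK-N-FI cells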
# Description: SANGER: Inhibition of human SK-N-FI cell growth in a cell viability assay.
# LB1047-RCC = type: functional, cell-based, Homo sapiens; settings: Homo sapiens, LB1047-RCC;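 note: inhibition of cell growth, determined with a cell viability assay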
# Description: SANGER: Inhibition of human LB1047-RCC cell growth in a cell viability assay.
# HCC1187 = type: functional, cell-based, Homo sapiens; settings: Homo sapiens, HCC1187;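 note: growth inhibition of HCC1187 cells, read out with a cell viability assay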
# Description: SANGER: Inhibition of human HCC1187 cell growth in a cell viability assay.
# C8166 = type: functional, cell-based; settings: Homo sapiens;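 note: growth inhibition of human C8166 cells measured by a cell viability assay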
# Description: SANGER: Inhibition of human C8166 cell growth in a cell viability assay.
# 639-V = type: functional, cell-based, Homo sapiens; settings: Homo sapiens, 639-V;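 note: growth inhibition of 639-V cells, read out with a cell viability assay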
# Description: SANGER: Inhibition of human 639-V cell growth in a cell viability assay.
# NCI-H2052 = type: functional, cell-based, Homo sapiens; settings: Homo sapiens, NCI-H2052;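 note: growth inhibition of NCI-H2052 cells, read out with a cell viability assay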
# Description: SANGER: Inhibition of human NCI-H2052 cell growth in a cell viability assay.
# NCI-H520 = type: functional, cell-based, Homo sapiens; settings: Homo sapiens, NCI-H520;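 note: growth inhibition of NCI-H520 cells, measured by a cell viability assay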
# Description: SANGER: Inhibition of human NCI-H520 cell growth in a cell viability assay.
# EKVX = type: functional, cell-based, Homo sapiens; settings: Homo sapiens, EKVX;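 note: growth inhibition of human EKVX cells, read out with a cell viability assay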
# Description: SANGER: Inhibition of human EKVX cell growth in a cell viability assay.
# HT-3 = type: functional, cell-based, Homo sapiens; settings: Homo sapiens, HT-3;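 note: growth inhibition measured with a cell viability readout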
# Description: SANGER: Inhibition of human HT-3 cell growth in a cell viability assay.
# KYSE-520 cell line = type: functional, cell-based, Homo sapiens; settings: Homo sapiens, KYSE-520;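 note: growth inhibition of human KYSE-520 cells, read out with a viability assay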
# Description: SANGER: Inhibition of human KYSE-520 cell growth in a cell viability assay.
# ES1 = type: functional, cell-based, Homo sapiens; settings: Homo sapiens, ES1;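 note: growth inhibition of ES1 cells, read out with a cell viability assay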
# Description: SANGER: Inhibition of human ES1 cell growth in a cell viability assay.
# NCI-H1770 = type: functional, cell-based; settings: Homo sapiens;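 note: growth inhibition of NCI-H1770 cells determined with a viability readout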
# Description: SANGER: Inhibition of human NCI-H1770 cell growth in a cell viability assay.
# ME-180 = type: functional, cell-based; settings: Homo sapiens;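 note: cell viability assay measuring growth inhibition of ME-180 cells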
# Description: SANGER: Inhibition of human ME-180 cell growth in a cell viability assay.
# SF-295 = type: functional, cell-based, Homo sapiens; settings: Homo sapiens, SF-295; read-out: IC50;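 note: growth inhibition of SF-295 cells, read out with a cell viability assay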
# Description: SANGER: Inhibition of human SF295 cell growth in a cell viability assay.
# SW948 = type: functional, cell-based, Homo sapiens; settings: Homo sapiens, SW948;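 note: growth inhibition of SW948 cells, read out with a cell viability assay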
# Description: SANGER: Inhibition of human SW948 cell growth in a cell viability assay.
# NCI-H82 = type: functional, cell-based; settings: Homo sapiens;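 note: growth inhibition of NCI-H82 cells, measured with a cell viability readout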
# Description: SANGER: Inhibition of human NCI-H82 cell growth in a cell viability assay.
# HN = type: functional, cell-based, Homo sapiens; settings: Homo sapiens, HN
# Description: SANGER: Inhibition of human HN cell growth in a cell viability assay.
# Panc1005 = type: functional, cell-based, Homo sapiens; settings: Homo sapiens, Panc1005;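 note: growth inhibition of human PANC-10-05 cells, measured by a cell viability assay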
# Description: SANGER: Inhibition of human PANC-10-05 cell growth in a cell viability assay.
# CAMA-1 = type: functional, cell-based, Homo sapiens; settings: Homo sapiens, CAMA-1;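 note: growth inhibition of CAMA-1 cells, read out with a cell viability assay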
# Description: SANGER: Inhibition of human CAMA-1 cell growth in a cell viability assay.
# A673 = type: functional, cell-based, Homo sapiens; settings: Homo sapiens, A673;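 note: growth inhibition of human A673 cells, read out through a cell viability assay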
# Description: SANGER: Inhibition of human A673 cell growth in a cell viability assay.
# KM12 = type: functional, cell-based, Homo sapiens; settings: Homo sapiens, KM12;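 note: KM12 cell growth inhibition, read out with a cell viability assay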
# Description: SANGER: Inhibition of human KM12 cell growth in a cell viability assay.
# UACC-893 = type: functional, cell-based, Homo sapiens; settings: Homo sapiens, UACC-893
# Description: SANGER: Inhibition of human UACC-893 cell growth in a cell viability assay.
# BPH-1 = type: functional, cell-based, Homo sapiens; settings: Homo sapiens, BPH-1;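 note: cell viability assay measuring growth inhibition of human BPH-1 cells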
# Description: SANGER: Inhibition of human BPH-1 cell growth in a cell viability assay.
# GCIY = type: functional, cell-based, Homo sapiens; settings: Homo sapiens, GCIY;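 note: growth inhibition of the human GCIY cell line, read out by a cell viability assay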
# Description: SANGER: Inhibition of human GCIY cell growth in a cell viability assay.
# GCT = type: functional, cell-based, Homo sapiens; settings: Homo sapiens, GCT;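 note: GCT cell line proliferation inhibition, read out with a cell viability assay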
# Description: SANGER: Inhibition of human GCT cell growth in a cell viability assay.
# HT1197 = type: functional, cell-based, Homo sapiens, HT-1197; settings: Homo sapiens, HT1197
# Description: SANGER: Inhibition of human HT-1197 cell growth in a cell viability assay.
# SW-620 = type: functional, cell-based, Homo sapiens; settings: Homo sapiens, SW-620;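 note: growth inhibition of human SW-620 cells, measured by a cell viability assay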
# Description: SANGER: Inhibition of human SW620 cell growth in a cell viability assay.
smiles,measurement,setting,value
CCC1=C[C@@H]2CN(C1)Cc1c([nH]c3ccccc13)[C@@](C(=O)OC)(c1cc3c(cc1OC)N(C)[C@H]1[C@@](O)(C(=O)OC)[C@H](OC(C)=O)[C@]4(CC)C=CCN5CC[C@]31[C@@H]54)C2 [VINORELBINE],IC50,U-87 MG,27.1 nM
same,IC50,SNB-75,12.5 nM
same,IC50,MEG-01,20.8 nM
same,IC50,NCI-H526,8.68 nM
same,IC50,LU-99A,6.24 nM
same,IC50,U-118-MG,> 64 nM
same,IC50,NCI-H226,25 nM
same,IC50,L-428,> 64 nM
same,IC50,NCI-H1838,> 64 nM
same,IC50,SK-MEL3,17.3 nM
same,IC50,KYSE-180,7.13 nM
same,IC50,LAN-6,> 64 nM
same,IC50,MOLT-16,12.8 nM
same,IC50,A-431,2.9 nM
same,IC50,EC-GI-10,> 64 nM
same,IC50,RERF-LC-MS,10.2 nM
same,IC50,OAW-28,15.2 nM
same,IC50,HSC-3,5.62 nM
same,IC50,DK-MG,> 64 nM
same,IC50,D-392MG,> 64 nM
same,IC50,T84,53.9 nM
same,IC50,OE19,13.2 nM
same,IC50,A388,6.07 nM
same,IC50,HuTu80,2.18 nM
same,IC50,SK-N-FI,> 64 nM
same,IC50,LB1047-RCC,> 64 nM
same,IC50,HCC1187,13.9 nM
same,IC50,C8166,17.6 nM
same,IC50,639-V,6.61 nM
same,IC50,NCI-H2052,61 nM
same,IC50,NCI-H520,1.87 nM
same,IC50,EKVX,> 64 nM
same,IC50,HT-3,> 64 nM
same,IC50,KYSE-520 cell line,17.8 nM
same,IC50,ES1,3.78 nM
same,IC50,NCI-H1770,5.53 nM
same,IC50,ME-180,21 nM
same,IC50,SF-295,12 nM
same,IC50,SW948,19.8 nM
same,IC50,NCI-H82,60 nM
same,IC50,HN,> 64 nM
same,IC50,Panc1005,3.52 nM
same,IC50,CAMA-1,45.6 nM
same,IC50,A673,7.27 nM
same,IC50,KM12,2.61 nM
same,IC50,UACC-893,> 64 nM
same,IC50,BPH-1,1.9 nM
same,IC50,GCIY,57.9 nM
same,IC50,GCT,50.8 nM
same,IC50,HT1197,> 64 nM
same,IC50,SW-620,8.52 nM
